Measurements reported in US10329304B2, “Compounds and methods for inhibition of hedgehog signaling and phosphodiesterase” (Vanderbilt University, priority 2014, dated 2019).
Like-named read-outs stand apart in the source and are kept apart here.

Key:
PDE4D3 = target: T1, PDE4D3 (Homo sapiens, UniProt Q08499); assay: In vitro PDE assay; format: biochemical; conditions: Table 9A
T1 construct: purchased BPS Biosciences (San Diego, Calif.); kinetic studies by Millipore (St. Louis, Mo.)
Protocol: (§1) In vitro PDE profiling and dose-response assays were performed by BPS Biosciences (San Diego, Calif.). Kinetic Mechanism of inhibition studies were conducted by Millipore (St. Louis, Mo.). In brief, the PDE assay measures fluorescent polarization of FAM-AMP as FAM-cAMP is converted to FAM-AMP by PDE), the binding agent.
(§2) A series of dilutions of the test compound were prepared with 10% DMSO in assay buffer and 5 μl of the dilution was added to a 50 μl reaction so that the final concentration of DMSO is 1% in all of reactions. All of the PDE enzymatic reactions were conducted in duplicate at room temperature for 60 minutes in a 50 μl mixture containing PDE assay buffer (10 mM Tris-HCl, pH7.4, 10 mM MaCl2, 0.05% Tween 20), 100 nM FAM-cAMP, a PDE enzyme and a test compound.
(§3) After the enzymatic reaction, 100 μl of a binding solution (1:100 dilution of the binding agent, which contains the nano beads that recognize FAM-AMP, with the binding agent diluent) was added to each reaction and the reaction was performed at room temperature for 60 minutes. Fluorescence intensity was measured at an excitation of 485 nm and an emission of 528 nm using a Tecan Infinite M1000 microplate reader. Assays done by Millipore were conducted similarly with changes noted below: […]

PDE4D2 = target: T2, PDE4D2 (Homo sapiens, UniProt Q08499); assay: In vitro PDE assay; format: biochemical; conditions: Table 9A
T2 construct: purchased BPS Biosciences (San Diego, Calif.)
T2 sequence (Q08499 303-809): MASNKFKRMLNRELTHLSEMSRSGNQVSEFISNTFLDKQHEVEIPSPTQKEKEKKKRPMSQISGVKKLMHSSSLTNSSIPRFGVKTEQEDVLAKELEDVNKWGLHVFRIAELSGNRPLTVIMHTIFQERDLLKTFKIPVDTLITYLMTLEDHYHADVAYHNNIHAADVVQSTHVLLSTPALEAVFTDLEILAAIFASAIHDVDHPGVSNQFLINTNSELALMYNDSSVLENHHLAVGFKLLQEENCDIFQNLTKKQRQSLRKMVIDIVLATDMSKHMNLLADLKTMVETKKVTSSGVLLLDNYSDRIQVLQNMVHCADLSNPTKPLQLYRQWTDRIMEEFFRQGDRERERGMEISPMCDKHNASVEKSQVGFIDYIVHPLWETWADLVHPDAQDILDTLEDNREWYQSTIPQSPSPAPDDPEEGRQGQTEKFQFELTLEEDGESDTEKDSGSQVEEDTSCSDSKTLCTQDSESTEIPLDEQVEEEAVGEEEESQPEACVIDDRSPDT
Protocol: as §1, §2, §3

[1] = tested on: Hedgehog signaling (TM3-Gli-Luc); assay: TM3-Gli-Luc luciferase reporter assay stimulated with 20 nM SAG; format: cell-based
Method in brief: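 Luciferase read-out divided by CellTiter-Glo viability, minus DMSO/no-SAG baseline, expressed relative to 20 nM SAG alone. Cells exposed to compound with SAG for 48 h at 37 °C in 2.5% FBS DMEM/F12 on gelatin. EC50 ±SEM from at least two separate-day runs.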

[2] = Lipophilic efficiency (LipE = pEC50 − cLogP) and cLogP
Protocol: Therefore, we prioritized phenotypic analog evaluation in the Gli-responsive luciferase reporter line TM3-Gli-Luc stimulated with 20 nM Smo agonist (SAG) while concurrently monitoring non-specific cellular toxicity. Additionally, lipophilic efficiency (LipE), a concurrent readout of a compound's potency (pEC50) and lipophilicity (cLogP) derived by subtracting the latter from the former, was utilized to optimize solubility properties (Table 12B), allowing for straightforward tracking of compounds with improvements in both parameters.

PDE4D = PDE4D (Homo sapiens, UniProt Q08499); assay: PDE4 inhibition assay (PDE4D IC50); format: biochemical; conditions: mean ± SEM, normalized to DMSO; read-out: PDE4D IC50
Chain of PDE4D (Q08499 whole entry): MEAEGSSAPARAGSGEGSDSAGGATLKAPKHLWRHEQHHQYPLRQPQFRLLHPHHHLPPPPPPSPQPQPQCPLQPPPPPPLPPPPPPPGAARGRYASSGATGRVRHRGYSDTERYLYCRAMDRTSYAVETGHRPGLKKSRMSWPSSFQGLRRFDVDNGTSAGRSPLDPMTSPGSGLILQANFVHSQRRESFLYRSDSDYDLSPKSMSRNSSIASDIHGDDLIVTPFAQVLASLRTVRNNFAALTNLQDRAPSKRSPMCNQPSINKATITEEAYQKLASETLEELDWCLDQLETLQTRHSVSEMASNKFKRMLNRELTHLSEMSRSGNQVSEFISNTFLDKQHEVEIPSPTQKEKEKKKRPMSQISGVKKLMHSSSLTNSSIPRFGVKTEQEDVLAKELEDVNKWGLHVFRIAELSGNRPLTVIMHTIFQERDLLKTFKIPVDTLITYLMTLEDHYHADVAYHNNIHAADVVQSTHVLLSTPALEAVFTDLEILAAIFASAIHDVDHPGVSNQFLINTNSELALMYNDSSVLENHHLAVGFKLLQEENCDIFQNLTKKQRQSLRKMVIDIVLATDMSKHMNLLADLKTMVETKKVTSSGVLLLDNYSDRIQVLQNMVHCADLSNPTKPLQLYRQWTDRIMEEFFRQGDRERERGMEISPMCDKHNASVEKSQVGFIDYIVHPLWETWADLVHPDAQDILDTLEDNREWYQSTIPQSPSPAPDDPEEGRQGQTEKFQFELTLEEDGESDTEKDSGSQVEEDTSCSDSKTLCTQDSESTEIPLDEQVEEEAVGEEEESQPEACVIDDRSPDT
Protocol: as §1, §2
After the enzymatic reaction, 100 μl of a binding solution (1:100 dilution of the binding agent, which contains the nano beads that recognize FAM-AMP, with the binding agent diluent) was added to each reaction and the reaction was performed at room temperature for 60 minutes. Fluorescence intensity was measured at an excitation of 485 nm and an emission of 528 nm using a Tecan Infinite M1000 microplate reader. Assays done by Millipore were conducted similarly with changes noted below:
Hedgehog signaling inhibition and PDE4 inhibition of various compounds disclosed herein was assayed as described herein above.

T1 sequence (Q08499 1-673 isoform Q08499-2): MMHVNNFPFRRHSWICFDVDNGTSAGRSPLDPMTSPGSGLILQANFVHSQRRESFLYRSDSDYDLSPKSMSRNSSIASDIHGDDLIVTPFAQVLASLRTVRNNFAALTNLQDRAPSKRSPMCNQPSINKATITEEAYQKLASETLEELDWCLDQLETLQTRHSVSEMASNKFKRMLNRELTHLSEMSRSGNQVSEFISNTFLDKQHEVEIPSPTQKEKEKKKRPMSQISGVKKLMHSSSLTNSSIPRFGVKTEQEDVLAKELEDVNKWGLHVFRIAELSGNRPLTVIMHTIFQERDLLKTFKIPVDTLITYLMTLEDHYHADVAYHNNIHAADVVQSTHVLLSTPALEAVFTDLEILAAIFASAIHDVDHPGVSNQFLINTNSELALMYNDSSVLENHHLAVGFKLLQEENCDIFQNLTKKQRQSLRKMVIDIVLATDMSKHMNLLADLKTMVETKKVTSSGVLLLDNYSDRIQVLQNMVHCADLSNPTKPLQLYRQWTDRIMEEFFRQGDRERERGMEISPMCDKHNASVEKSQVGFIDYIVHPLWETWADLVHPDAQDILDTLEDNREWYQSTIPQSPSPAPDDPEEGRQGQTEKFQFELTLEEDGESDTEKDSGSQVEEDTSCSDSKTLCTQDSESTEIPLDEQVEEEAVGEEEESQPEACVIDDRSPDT

Row | Structure (SMILES) | IC50 (PDE4D3) | IC50 (PDE4D2) | further results
1 | C=C(C)Cn1c(SCC(=O)N2CCCC[C@H]2C)nc2sc3c(c2c1=O)CCCC3 [Formula 1ANQ] | 1.7 µM | 1.2 µM | TM3 G8 Luciferase % Inh., 0.5 pM ([1]; 0.5 pM as printed): 17.4%
2 | C=CCn1c(SCC(=O)c2ccccn2)nc2sc3c(c2c1=O)CCCC3 [Formula 1KL1] | 62 µM | 25 µM | –
3 | C=CCn1c(SCC(=O)c2ccncc2)nc2sc3c(c2c1=O)CCCC3 [Formula 1KMH] | 8.2 µM | 5 µM | –
4 | C=CCn1c(SCC(=O)N2CCCC[C@H]2C)nc2sc3c(c2c1=O)CCCC3 [Formula 1KMR] | 11 µM | 7.6 µM | –
5 | C=CCn1c(SCC(=O)N2Cc3ccccc3C2)nc2sc3c(c2c1=O)CCCC3 [Formula 1KYW] | > 100 µM | > 100 µM | –
6 | C=CCn1c(SCC(=O)N2CCOCC2)nc2sc3c(c2c1=O)CCCC3 [Formula 1L4R] | > 100 µM | > 100 µM | EC50 ([1]; Table 9A, read-out: TM3 G8 Luciferase EC 50): 2.82 µM
7 | C=C(C)Cn1c(SCC(=O)c2cccs2)nc2sc3c(c2c1=O)CCCC3 [Formula 3] | – | – | EC50 ([1]; 20 nM SAG, mean ± standard error of the mean, read-out: TM3-Gli-Luc EC50): 1.34 ± 0.002 µM; EC50 ([1]; TM3-Gli-Luc reporter line stimulated with 20 nM SAG, mean ± SEM, Table 14, read-out: TM3-Gli-Luc EC50): 1.34 ± 0.002 µM; LipE ([2]; Calculated as pEC50 - cLogP, Molinspiration Cheminformatics): 0.73; LipE ([2]; pEC50 - cLogP, Table 14): 0.73; IC50 (PDE4D): 0.38 ± 0.02 µM
